In patent publication US20250360233A1, “Central Neurodegeneration Imaging Agent and Method of Preparing the Same” (National Atomic Research Institute, priority 2024, published 2025):
Where two headings read alike, the source gives them in different places.

Key:
[1] = tested on: mouse brains (PD brain lesions); assay: PET brain imaging of Rotenone-induced Parkinson's disease mice versus Sham; type: in vivo; conditions: for F-18 images of PD brains compared with the control group (Sham): Rotenone tube feeding 12 weeks
Excerpt: Regarding its application, the present invention entails feeding Rotenone to mice by tube feeding continuously for 12 weeks to induce the mouse brains to manifest Parkinson's disease (PD) symptom animal mode for function as the experimental group, treating mice with placebo to serve as the control group (Sham) without manifesting any PD lesions, performing imaging of the mouse brains with an F-18-FE-PE21, F-18-FDOPA and F-18-α-syn3 respectively, displaying the longitudinal-section and cross-section images of the mouse brains, and comparing the intake of the F-18 imaging agent into the mouse brains.

[2] = logP analysis of the F-18-α-syn3; type: physicochemical
Excerpt: The experimental results of the logP analysis of the F-18-α-syn3 of the present invention are as follows:
The above data is about testing the logP of the F-18-α-syn3 labeling finished product solution repeatedly. The result confirms that all the logP values range from 2 to 3.

[3] = F-18-α-syn3 serum stability; type: in vitro ADME; conditions: serum at 37° C., after a hour
Protocol: Moreover, the present invention discloses giving considerations to the F-18-α-syn3 formula and serum stability and thus conducting F-18-α-syn3 formula research to attain a recycling rate as high as 90.1%. Regarding a test of F-18-α-syn3 serum stability, medications are placed within serum at 37° C., achieving radioactive chemical purity of 91.5% even after a hour.

α-synuclein = α-synuclein (Homo sapiens, UniProt P37840); assay: test tube competition test, α-synuclein; conditions: read-out: IC50 (50% binding inhibition)
Excerpt: (§1) Therefore, the present invention not only effectively reduces the logP value but also passes a test of affinity, specificity, and parallel artificial membrane.

amyloid-β(Aβ) = amyloid-β(Aβ) (Homo sapiens, UniProt P05067); assay: affinity comparison, amyloid-β; type: binding; conditions: read-out: amyloid-β(Aβ) value compared with the α-synuclein IC50
Excerpt: as §1

[4] = parallel artificial membrane permeation assay (PAMPA) simulating the blood-brain barrier; type: in vitro ADME
Excerpt: as §1

[5] = Rotenone PD mice versus Sham, PET

amyloid-β(Aβ), sequence (P05067 672-713 limits assumed): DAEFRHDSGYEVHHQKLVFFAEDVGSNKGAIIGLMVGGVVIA

| SMILES | selectivity in terms of brain distribution [1, 5] | F-18 images of PD brains compared with the control group (Sham) ([1]; mice, PET) | brain intake, experimental group versus control group [1, 5] | logP ([2]; 50 uCi, read-out: logP) | logP ([2]; end solution, 22 uCi, read-out: logP) | logP ([2]; end solution, 50 uCi, read-out: logP) | logP ([2]; labeling finished product solution tested repeatedly, read-out: logP, range of all repeated tests) | radioactive chemical purity in serum [3] [%] | IC50 (α-synuclein) [nM] | IC50 (amyloid-β(Aβ)) [nM] | concentration that ensures the satisfaction of PAMPA [4] | PAMPA pass rate ([4]; concentration of 60 nM) [%] | background absorption level [1, 5] | passage through the blood-brain barrier (BBB) into mouse brains ([1]; mice) |
| --- | --- | --- | --- | --- | --- | --- | --- | --- | --- | --- | --- | --- | --- | --- |
| N[C@@H](Cc1cc(O)c(O)cc1[18F])C(=O)O [F-18-FDOPA] | no selectivity | no difference and no specificity | – | – | – | – | – | – | – | – | – | – | – | – |
| Cc1ccc([C@H]2C[C@@H]3CC[C@H]([C@H]2C(=O)OCC[18F])N3C/C=C/I)cc1 [F-18-FE-PE21] | – | no difference and no specificity | lower | – | – | – | – | – | – | – | – | – | – | – |
| O=C1/C(=C\C=C\c2ccc([N+](=O)[O-])cc2)c2ccccc2N1CCOCCF [F-18-α-syn3, (Z)-1-(2-(2-fluoroethoxy)ethyl)-3-((E)-3-(4-nitrophenyl)allylidene) indolin-2-one] | – | clearer F-18 images | – | 2.63 | 2.41 | 2.07 | 2 to 3 | 91.5 | 172 | 142 | at least 6 nM | 56.25 | obviously lower | can pass through the blood-brain barrier |
